Measured values: PMC10619430, “Xenobiotic Exposure and Migraine-Associated Signaling: A Multimethod Experimental Study Exploring Cellular Assays in Combination with Ex Vivo and In Vivo Mouse Models” (Environmental Health Perspectives, 2023)

What was measured:
Assay type in all cases: cell-based
[1] = target: T1, human TRPA1 channel (hTRPA1) (Homo sapiens, UniProt O75762); experiment: fluo-4 calcium imaging in hTRPA1-HEK vs control cells at […] ([…] of ionomycin, […] of SCA response)
[2] = target: T1, human TRPA1 channel (hTRPA1); experiment: whole-cell patch clamp in hTRPA1-HEK cells vs control cells; calcium imaging
[3] = target: T1, human TRPA1 channel (hTRPA1); experiment: fluo-4 calcium imaging in hTRPA1-HEK vs control cells at […]; details: read-out: % of ionomycin response at 100 μM

T1 sequence (O75762 whole entry): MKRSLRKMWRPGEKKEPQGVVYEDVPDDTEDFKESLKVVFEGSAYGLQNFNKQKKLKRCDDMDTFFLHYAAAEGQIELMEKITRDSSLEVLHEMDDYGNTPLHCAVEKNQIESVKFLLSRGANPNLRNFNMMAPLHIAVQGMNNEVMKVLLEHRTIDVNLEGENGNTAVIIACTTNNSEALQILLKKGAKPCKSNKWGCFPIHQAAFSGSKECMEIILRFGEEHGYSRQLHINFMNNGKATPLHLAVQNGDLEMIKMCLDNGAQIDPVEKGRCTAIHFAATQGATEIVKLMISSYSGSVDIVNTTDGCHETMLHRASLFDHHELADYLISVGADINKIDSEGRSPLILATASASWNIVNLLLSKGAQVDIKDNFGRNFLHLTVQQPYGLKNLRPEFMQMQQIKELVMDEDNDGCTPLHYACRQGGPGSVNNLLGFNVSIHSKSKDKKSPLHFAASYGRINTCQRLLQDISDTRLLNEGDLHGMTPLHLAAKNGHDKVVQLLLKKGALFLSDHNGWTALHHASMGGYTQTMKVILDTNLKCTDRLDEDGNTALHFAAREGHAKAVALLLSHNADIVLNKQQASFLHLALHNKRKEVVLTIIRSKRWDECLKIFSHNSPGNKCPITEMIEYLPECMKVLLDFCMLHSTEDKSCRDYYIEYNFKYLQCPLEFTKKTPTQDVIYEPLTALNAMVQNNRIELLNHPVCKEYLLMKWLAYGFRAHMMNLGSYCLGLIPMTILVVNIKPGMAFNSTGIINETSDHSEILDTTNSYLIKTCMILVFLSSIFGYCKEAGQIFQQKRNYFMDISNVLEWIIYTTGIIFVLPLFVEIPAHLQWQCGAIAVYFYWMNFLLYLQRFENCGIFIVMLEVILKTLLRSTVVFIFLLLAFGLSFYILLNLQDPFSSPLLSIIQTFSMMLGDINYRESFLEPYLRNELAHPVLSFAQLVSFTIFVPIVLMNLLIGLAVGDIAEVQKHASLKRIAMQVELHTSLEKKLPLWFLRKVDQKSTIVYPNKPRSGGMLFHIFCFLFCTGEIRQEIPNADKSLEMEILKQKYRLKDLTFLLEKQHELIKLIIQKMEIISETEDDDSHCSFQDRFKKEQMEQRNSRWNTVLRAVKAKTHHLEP

Row | SMILES | activation at 100 µM [3] [%] | further results
1 | Oc1c(Cl)cc(Cl)c(Cl)c1Cc1c(O)c(Cl)cc(Cl)c1Cl [HCP, 3,4,6-trichloro-2-[(2,3,5-trichloro-6-hydroxyphenyl)methyl]phenol] |  | activation at 10 µM [1]: 47%
2 | Oc1c(Cl)c(Cl)c(Cl)c(Cl)c1Cl [PCP, 2,3,4,5,6-pentachlorophenol] |  | EC50 [2]: 15 µM
3 | O=C(OCc1ccccc1)c1ccc(O)cc1 [BzPa, Benzyl 4-hydroxybenzoate] | 34.2 | 
4 | CC(C)(c1ccc(O)cc1)c1ccc(O)cc1 [BPA, 4-[2-(4-hydroxyphenyl)propan-2-yl]phenol] | 11 | 
